Reference: ChEMBL document CHEMBL5528066, “Discovery of Novel N-(Anthracen-9-ylmethyl) Benzamide Derivatives as ZNF207 Inhibitors Promising in Treating Glioma” (J Med Chem, 2024)
Calls of active or inactive are those of the source. No cut-off for these calls is given here.

What was measured:
H4 [1] = test: Inhibition of sphere formation in human H4 cells assessed as fold reduction in sphere initiating frequency at 8 uM incubated for 10 days by microscopic analysis relative to control; format: functional; conditions: time 10 day
LN-229 [2] = test: Antitumor activity against human LN-229 cells xenografted in BALB/c nude mouse assessed as reduction in proportion of p-H3 positive cells at 150 mg/kg, ip administered twice a week and measured after 49 days by immunohistochemistry analysis; format: functional, organism-based; conditions: time 49.0 day
H4 [3] = test: Inhibition of sphere formation in human H4 cells at 8 uM measured after 10 days in well containing 1 cells by microscopic analysis; format: functional, cell-based; conditions: time 10.0 day
LN-229 [4] = test: Inhibition of sphere formation in human LN-229 cells at 1 uM measured after 10 days in well containing 10000 cells by microscopic analysis; format: functional, cell-based; conditions: time 10.0 day

N#CC1(C(=O)NCCC2CCN(Cc3ccccc3)CC2)CC2(Br)c3ccccc3C1c1ccccc12 (racemic)
fold change (FC) (H4 [1]): 51.75 | Activity (LN-229 [2]): Active | inhibition (H4 [3]): Active | inhibition (LN-229 [4]): inactive
